One data set relates to CEM #21 cells. As to the kind of experiment: Viability assay, CEM#21 target cells. It counts as cell-based. The protocol: H-JRFL#1336 (effector) and H-Fluc4 (control) cells were grown in DMEM containing 10% FBS, 100 μg/ml streptomycin, 100 units/ml penicillin, 200 μg/ml G418, 1 μg/ml puromycin and 2 μg/ml doxycycline. H-JRFL#13 cells carry an HIV-1JR-FL env gene that is induced by growing the cells in the absence of doxycycline (Tet-Off expression system). H-Fluc4 cells, which carry a firefly luciferase gene that is induced in the absence of doxycycline, were used as specificity controls. Both cell lines were derived from HeLa cells and constitutively express the tetracycline-regulated transactivator (Tet-Off expression system). CEM#21 target cells were grown in RPMI containing 10% FBS, 100 μg/ml streptomycin, 100 units/ml penicillin and 1 μg/ml puromycin. […]
Viability Assay. […] The plate was equilibrated to room temperature, 15 μl of CellTiterGlo (Promega) was added to each well and luminescence was measured as described above. […] 30 μl (Cf2Th cells) or 100 μl (PBMC) of CellTiterGlo was added and luminescence was measured as described above.

A further data set has as its system HIV-1JR-FL gp120. Kind of data set: ELISA, binding of monoclonal antibodies to gp120 in presence of compound. Conditions: preincubation of gp120 with 18A. How it is done:
Enzyme-linked immunosorbent assay (ELISA). […] Wells were blocked with blocking buffer (5% nonfat dry milk (Bio-Rad) in PBS) for 2 hours and then washed twice with PBS. Between 0.25 and 0.5 μg of purified HIV-1JR-FL gp120 in blocking buffer was added to each well; the plate was incubated for 60 minutes and washed thrice with PBS. […] The plate was incubated for a further 30 minutes and washed thrice with 0.05% Tween in PBS and thrice with PBS. […] The plate was incubated for 30 minutes, washed three times with 0.05% Tween in PBS and three times with PBS, as before, and 80 μl of SuperSignal chemiluminescent substrate (Pierce) was added to each well. The relative light units in each well were measured for 2 sec with a Centro LB 960 luminometer (Berthold Technologies). All procedures were performed at room temperature. Cellbased ELISA was performed.

The next data set deals with HIV-1HXBc2. As to the kind of experiment: Viral infection assay, CXCR4-tropic virus, Cf2Th-CD4/CXCR4 cells. It counts as cell-based. Conditions: HIV-1HXBc2, Cf2Th cells expressing CD4 and CXCR4.
Another data set concerns A-MLV. As to the kind of experiment: Infection of human PBMC by control A-MLV. The data set is classed as cell-based, amphotropic murine leukemia virus. Conditions: range of tested concentrations. The protocol:
Peripheral blood mononuclear cells (PBMC). Human blood was purchased from Research Blood Components, who obtained a consent firm from each donor, according to the American Association of Blood Banks guidelines, PBMC were isolated from the whole blood using a Ficoll-Paque gradient (Ficoll-Paque PLUS, Amersham Biosciences) and activated at concentration of 10^6 live cells/ml for 3 days in RPMI-PBMC medium (RPMI-1640 supplemented with 20% FBS, 10% IL-2 (Hemagen, Columbia, Md.), 100 μg/ml primocin (InvivoGen, San Diego, Calif.)) with 4 μg/ml phytohemagglutinin (Sigma-Aldrich, St. Louis, Mo.). In some cases, cells were frozen, thawed and activated prior to the assay.
Viral infection assay. Each test compound was serially diluted in DMSO in a 96-well B&W isoplate (PerkinElmer, Boston, Mass.) using an HP D300 Digital Dispenser, to a final volume of 450 nl. DMSO was used as a control. […] The activity of the firefly luciferase, which was used as a reporter protein in the system, was measured with a Centro LB 960 luminometer (Berthold Technologies, Oak Ridge, Tenn.). One hundred microliters of assay buffer (15 mM MgSO4, 15 mM KH2PO4/K2HPO4 pH 7.8, 1 mM ATP and 1 mM DTT) was injected to each well, followed by a 50 μl injection of 1 mM Dluciferin potassium salt (BD Pharmingen, San Jose, Calif.); luminescence was measured for 2 sec. […]

Each structure is given as a SMILES string.

As a reminder, the CC50 is the concentration at which the toxic effect on the cells reaches its halfway point. In general, IC50 refers to the concentration needed to halve the response being measured. A high value points to weaker potency. `O=C(N/N=C/c1ccc(O)cc1)Nc1cccc2nsnc12` [Compound 18A]: it took 26.6 ± 2.1 µM to reach half-maximal cytotoxicity in the data set on CEM #21 cells (CC50). In addition, in the data set on HIV-1JR-FL gp120, the “binding of E51, 17b and 412d (CD4i) antibodies to gp120” value is given as “modest but reproducible decrease”; the “binding of most monoclonal antibodies to gp120” value was “not affected”. The compound also registered a half-inhibitory concentration (IC50) in the data set with HIV-1HXBc2 of about 25 µM. Further, the “effect on A-MLV infection” value with A-MLV is listed as “No significant effect”.

Source of the values: patent US20170298056A1, “SMALL MOLECULE INHIBITORS OF HIV-1 ENTRY AND METHODS OF USE THEREOF” (Dana-Farber Cancer Institute, Inc., priority 2014, published 2017).
